According to patent publication US8633315B2, “Substituted hydroxyethyl amine compounds as beta-secretase modulators and methods of use” (Amgen Inc., priority 2007, dated 2014):

These compounds were tested against BACE1 (Homo sapiens, UniProt P56817) (assay: In vitro enzymatic BACE FRET (fluorescence resonance energy transfer) assay).
Assay type: biochemical
Method: In Vitro Enzymatic BACE FRET (Fluorescence Resonance Energy Transfer) Assay (Enzyme Assay Data in Table 1)
The assay buffer used in this screen is 0.05 M acetate, pH 4.2, 10% DMSO final, 100 uM genapol (which is a nonionic detergent, below its Critical Micelle Concentration). […] The assay is effectively started by the addition of FRET substrate (50 nM) and the combination is incubated for one hour. The FRET assay is terminated with by addition of Tris buffer, which raises the pH to neutrality, and the fluorescence is determined. The FRET substrate is a peptide with commercially available fluorophore and quencher, on opposite sides of the BACE cleavage site. Proteolytic cleavage of the FRET substrate releases quenching of fluorescence (excitation […] and emission […]).

Sequence of BACE1 (P56817 46-501, species assumed): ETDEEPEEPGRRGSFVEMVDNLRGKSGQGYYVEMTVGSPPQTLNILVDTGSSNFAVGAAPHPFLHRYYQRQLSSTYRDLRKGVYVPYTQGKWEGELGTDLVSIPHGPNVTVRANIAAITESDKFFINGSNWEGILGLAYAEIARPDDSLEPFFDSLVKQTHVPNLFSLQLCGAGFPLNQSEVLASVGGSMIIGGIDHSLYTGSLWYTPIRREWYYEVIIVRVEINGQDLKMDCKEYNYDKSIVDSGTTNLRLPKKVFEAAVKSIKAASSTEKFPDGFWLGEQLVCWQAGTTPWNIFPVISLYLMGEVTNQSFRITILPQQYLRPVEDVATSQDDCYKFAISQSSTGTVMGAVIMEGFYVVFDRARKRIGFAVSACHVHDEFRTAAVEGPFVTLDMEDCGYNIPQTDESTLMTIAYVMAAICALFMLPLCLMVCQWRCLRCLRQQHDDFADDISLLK

| SMILES | IC50 [nM] |
| --- | --- |
| CC(=O)N[C@H]([C@H](O)CN[C@H]1CC2(CCC2)Oc2ncc(CC(C)(C)C)cc21)C(C)(C)C [Example 81, N-((1S)-1-((1R)-2-(((4′S)-6′-(2,2-dimethylpropyl)-3′,4′-dihydrospiro[cyclobutane-1,2′-pyrano[2,3-b]pyridin]-4′-yl)amino)-1-hydroxyethyl)-2,2-dimethylpropyl)acetamide] | 21400 |
| C=CC[C@H](NC(=O)COC)[C@H](O)CN[C@H]1CC2(CCC2)Oc2ncc(C[C@@H](C)C(F)(F)F)cc21 [Example 124, N-((1S)-1-((1R)-1-hydroxy-2-(((4′S)-6′-((2R)-3,3,3-trifluoro-2-methylpropyl)-3′,4′-dihydrospiro[cyclobutane-1,2′-pyrano[2,3-b]pyridin]-4′-yl)amino)ethyl)-3-buten-1-yl)-2-(methyloxy)acetamide] | 412 |
| C=CCC(NC(=O)COC)C(O)CNC1CC2(CC(C#N)C2)Oc2ncc(CC(C)(C)C)cc21 [Example 113, N-((1S)-1-((1R)-2-(((1r,3S,4′S)-3-cyano-6′-(2,2-dimethylpropyl)-3′,4′-dihydrospiro[cyclobutane-1,2′-pyrano[2,3-b]pyridin]-4′-yl)amino)-1-hydroxyethyl)-3-buten-1-yl)-2-(methyloxy)acetamide] | 302 |
| C=CC[C@H](NC(=O)c1ccno1)[C@H](O)CN[C@H]1CC2(CCC2)Oc2ncc(CC(C)(C)C)cc21 [Example 93, N-((1S)-1-((1R)-2-(((4′S)-6′-(2,2-dimethylpropyl)-3′,4′-dihydrospiro[cyclobutane-1,2′-pyrano[2,3-b]pyridin]-4′-yl)amino)-1-hydroxyethyl)-3-buten-1-yl)-5-isoxazolecarboxamide] | 43 |
| C=CC[C@H](NC(C)=O)[C@H](O)CN[C@H]1C[C@@]2(CC[C@@H]2O)Oc2ncc(CC(C)(C)C)cc21 [Example 53, N-((1S)-1-((1R)-2-(((1R,2S,4′S)-6′-(2,2-dimethylpropyl)-2-hydroxy-3′,4′-dihydrospiro[cyclobutane-1,2′-pyrano[2,3-b]pyridin]-4′-yl)amino)-1-hydroxyethyl)-3-buten-1-yl)acetamide] | 8220 |
| C=CC[C@H](NC(C)=O)[C@H](O)CN[C@H]1C[C@]2(CC[C@H]2O)Oc2ncc(CC(C)(C)C)cc21 [Example 52, N-((1S)-1-((1R)-2-(((1S,2R,4′S)-6′-(2,2-dimethylpropyl)-2-hydroxy-3′,4′-dihydrospiro[cyclobutane-1,2′-pyrano[2,3-b]pyridin]-4′-yl)amino)-1-hydroxyethyl)-3-buten-1-yl)acetamide] | 70 |
| CCC[C@H](NC(C)=O)[C@H](O)CN[C@H]1C[C@@]2(CC[C@@H]2O)Oc2ncc(CC(C)(C)C)cc21 [Example 54, N-((1S)-1-((1R)-2-(((1R,2S,4′S)-6′-(2,2-dimethylpropyl)-2-hydroxy-3′,4′-dihydrospiro[cyclobutane-1,2′-pyrano[2,3-b]pyridin]-4′-yl)amino)-1-hydroxyethyl)butyl)acetamide] | 18600 |
| C=CC[C@H](NC(=O)COC)[C@H](O)CN[C@H]1CC2(CCC2)Oc2ccc(CC(C)(C)C)cc21 [Example 34, N-((1S)-1-((1R)-2-(((4S)-6-(2,2-dimethylpropyl)-3,4-dihydrospiro[chromene-2,1′-cyclobutan]-4-yl)amino)-1-hydroxyethyl)-3-buten-1-yl)-2-(methyloxy)acetamide] | 61 |
| C=CC[C@H](NC(C)=O)[C@H](O)CN[C@H]1CC2(CCC2)Oc2ncc(C[C@H](C)C(F)(F)F)cc21 [Example 122, N-((1S)-1-((1R)-1-hydroxy-2-(((4′S)-6′-((2S)-3,3,3-trifluoro-2-methylpropyl)-3′,4′-dihydrospiro[cyclobutane-1,2′-pyrano[2,3-b]pyridin]-4′-yl)amino)ethyl)-3-buten-1-yl)acetamide] | 322 |
| C=CC[C@H](NC(=O)COC)[C@H](O)CN[C@H]1CC2(CCC2)Oc2ncc(C[C@H](C)C(F)(F)F)cc21 [Example 123, N-((1S)-1-((1R)-1-hydroxy-2-(((4′S)-6′-((2S)-3,3,3-trifluoro-2-methylpropyl)-3′,4′-dihydrospiro[cyclobutane-1,2′-pyrano[2,3-b]pyridin]-4′-yl)amino)ethyl)-3-buten-1-yl)-2-(methyloxy)acetamide] | 177 |
| C=CC[C@H](NC(=O)COC)[C@H](O)CNC1CC2(CCC2)Oc2ncc(CC(C)C)cc21 (stereo partly drawn) [Example 39, N-((1S)-1-((1R)-1-hydroxy-2-((6′-(2-methylpropyl)-3′,4′-dihydrospiro[cyclobutane-1,2′-pyrano[2,3-b]pyridin]-4′-yl)amino)ethyl)-3-buten-1-yl)-2-(methyloxy)acetamide] | 147 |
| C=CC[C@H](NC(C)=O)[C@H](O)CN[C@H]1CC2(CCC2)Oc2ccc(CC(C)(C)C)cc21 [Example 33, N-((1S)-1-((1R)-2-(((4S)-6-(2,2-dimethylpropyl)-3,4-dihydrospiro[chromene-2,1′-cyclobutan]-4-yl)amino)-1-hydroxyethyl)-3-buten-1-yl)acetamide] | 212 |
| C=CCC(NC(C)=O)C(O)CNC1CC2(CC(C#N)C2)Oc2ncc(CC(C)(C)C)cc21 [Example 114, N-((1S)-1-((1R)-2-(((1r,3S,4′S)-3-cyano-6′-(2,2-dimethylpropyl)-3′,4′-dihydrospiro[cyclobutane-1,2′-pyrano[2,3-b]pyridin]-4′-yl)amino)-1-hydroxyethyl)-3-buten-1-yl)acetamide] | 378 |
| C=CC[C@H](NC(=O)[C@H]1CCCO1)[C@H](O)CN[C@H]1CC2(CCC2)Oc2ncc(CC(C)(C)C)cc21 [Example 92, (2R)-N-((1S)-1-((1R)-2-(((4′S)-6′-(2,2-dimethylpropyl)-3′,4′-dihydrospiro[cyclobutane-1,2′-pyrano[2,3-b]pyridin]-4′-yl)amino)-1-hydroxyethyl)-3-buten-1-yl)tetrahydro-2-furancarboxamide] | 84 |
